These results are taken from publication PMC6099693, “Design, Synthesis, and In Vitro Evaluation of Novel Histone H3 Peptide-Based LSD1 Inactivators Incorporating α,α-Disubstituted Amino Acids with γ-Turn-Inducing Structures” (Molecules : A Journal of Synthetic Chemistry and Natural …, 2018).

Common to all, as to format: biochemical
In assay [1] the target is T1, MAO-A (Homo sapiens, UniProt P21397).
T1 construct: purchased Sigma-Aldrich
T1 sequence (P21397 1-527): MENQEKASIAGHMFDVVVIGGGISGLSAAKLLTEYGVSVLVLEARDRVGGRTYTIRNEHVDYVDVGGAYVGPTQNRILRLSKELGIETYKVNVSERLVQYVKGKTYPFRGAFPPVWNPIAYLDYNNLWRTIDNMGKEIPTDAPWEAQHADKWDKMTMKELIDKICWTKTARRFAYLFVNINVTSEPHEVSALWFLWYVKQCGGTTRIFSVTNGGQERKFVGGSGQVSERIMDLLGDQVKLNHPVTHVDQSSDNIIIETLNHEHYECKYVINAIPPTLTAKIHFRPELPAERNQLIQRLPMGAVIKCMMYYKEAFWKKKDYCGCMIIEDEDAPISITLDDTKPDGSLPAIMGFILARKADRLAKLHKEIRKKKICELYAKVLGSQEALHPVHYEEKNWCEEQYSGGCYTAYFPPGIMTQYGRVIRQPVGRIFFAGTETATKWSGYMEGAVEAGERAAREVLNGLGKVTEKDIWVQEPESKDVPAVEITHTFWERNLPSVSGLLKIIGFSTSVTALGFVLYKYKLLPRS
Kind of assay: MAO-Glo assay, MAO-A inhibitory activity. The following applies: for IC50: Promega V1401, MAO-A 18 units/mL, substrate 160 µM, room temperature, 60 min, chemiluminescence, means ± S.D. of at least three experiments. On the procedure: (§1) We assayed for the LSD1 inhibitory activities of novel peptides 2a–c. The assay was performed with an LSD1 Fluorometric Drug Discovery Kit (Enzo Life Sciences, New York, NY, USA, BML-AK544-0001). […] Next, we examined the time-dependency of LSD1 inhibition by peptides 2a–c. […] We also assayed for the inhibitory activities of monoamine oxidases (MAOs), which are FAD-dependent oxidases associated with neurotransmitter metabolism, to investigate the selectivity toward LSD1. For this investigation, we used a MAO-Glo^TM Assay System (Promega, Madison, WI, USA, V1401).
(§2) Assays for MAO inhibitory activity were carried out according to the supplier’s protocol using a MAO-Glo^TM Assay System (Promega, V1401). […] Reactions were stopped after 60 min by adding reconstituted Luciferin Detection Reagent (50 µL/well). Then, 20 min after the addition of this reagent, the chemiluminescence of the wells was measured with a 2030 ARVO^TM X3 Multilabel Reader (PerkinElmer). For data processing, the same procedure as that for LSD1 inhibitory activity was used.

In assay [2] the target is T2, LSD1 (Homo sapiens, UniProt O60341).
T2 construct: purchased Enzo Life Sciences BML-AK544-0001
In words: LSD1 Fluorometric Drug Discovery Kit, LSD1 inhibitory activity. The conditions noted are these: for IC50: Enzo BML-AK544-0001 kit, 15 min pre-incubation with LSD1 (0.5 µg/well), room temperature, H3K4me2 peptide 20 µM, 30 min, fluorescence 540/590 nm, means ± S.D. of at least three experiments; for LSD1 inhibitory activity: comparison within Table 1. On the procedure:
The assay was performed with an LSD1 Fluorometric Drug Discovery Kit (Enzo Life Sciences, New York, NY, USA, BML-AK544-0001). […] We also assayed for the inhibitory activities of monoamine oxidases (MAOs), which are FAD-dependent oxidases associated with neurotransmitter metabolism, to investigate the selectivity toward LSD1. For this investigation, we used a MAO-Glo^TM Assay System (Promega, Madison, WI, USA, V1401).
Inhibitors were pre-incubated with LSD1 (0.5 µg/well; room temperature; 15 min) before reactions were initiated by the addition of H3K4me2 peptide (2.3 µg/well, 20 µM) into all wells except the blank. After incubation (room temperature; 30 min), CeLLestial^TM Red and HRP in the assay buffer were added and the incubation was prolonged (room temperature; 5 min). […] IC50 values were determined by regression analysis of the concentration/inhibition data.

Assay [3] deals with T3, MAO-B (Homo sapiens, UniProt P27338).
T3 construct: purchased Sigma-Aldrich
T3 sequence (P27338 1-520): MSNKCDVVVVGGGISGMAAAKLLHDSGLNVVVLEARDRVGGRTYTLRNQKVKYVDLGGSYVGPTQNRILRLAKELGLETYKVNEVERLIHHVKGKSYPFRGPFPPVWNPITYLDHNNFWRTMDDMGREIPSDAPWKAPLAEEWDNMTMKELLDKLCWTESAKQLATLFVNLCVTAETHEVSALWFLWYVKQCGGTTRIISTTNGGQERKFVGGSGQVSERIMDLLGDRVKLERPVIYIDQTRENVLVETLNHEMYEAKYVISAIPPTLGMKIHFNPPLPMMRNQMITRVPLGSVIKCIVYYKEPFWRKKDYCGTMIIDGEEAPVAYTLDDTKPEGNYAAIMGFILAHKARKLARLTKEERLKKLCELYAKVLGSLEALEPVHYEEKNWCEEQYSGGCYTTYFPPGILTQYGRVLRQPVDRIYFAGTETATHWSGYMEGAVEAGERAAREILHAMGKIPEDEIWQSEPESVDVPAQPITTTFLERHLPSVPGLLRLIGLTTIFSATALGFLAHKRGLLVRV
Kind of assay: MAO-Glo assay, MAO-B inhibitory activity. The following applies: Promega V1401; MAO-B 6 units/mL, substrate 16 µM; room temperature, 60 min; chemiluminescence; means ± S.D. of at least three experiments. On the procedure:
as §1, §2

Molecules are shown by their SMILES. *1 amine or outer side, *2 acyl side, *3 side chain or, on linkers, in order; H or OH if unused. Where a SMILES comes first, the peptide text is derived from it. [ ]: non-standard residue; d: D form. Lys((1R,2S)-2-Ph-cPr) = N[C@@H](CCCCN[C@@H]1C[C@H]1c1ccccc1)C(=O)O; X1 = O=C(C1(N[*:1])C2CC3CC(C2)CC1C3)[*:2]; Ac6c = NC1(C(=O)O)CCCCC1; Aib = CC(C)(N)C(=O)O Where only a bound is given, the exact number is not on record here.

As to `N[C@@H]1C[C@H]1c1ccccc1` (relative stereo) [PCPA, trans-2-phenylcyclopropylamine, reference compound], the “MAO-A inactivation” value in assay [1] (peptides at 10 µM, PCPA as positive control) was “inactivated both MAO-A and MAO-B”.
A word on the IC50: it is the concentration that inhibits the measured activity by half. For `C[C@H](N)C(=O)N[C@@H](CCCNC(=N)N)C(=O)NC1(C(=O)N[C@@H](CCCCN[C@@H]2C[C@H]2c2ccccc2)C(=O)NC2(C(=O)N[C@H](C(=O)N[C@@H](C)C(=O)N[C@@H](CCCNC(=N)N)C(=O)N[C@@H](CCCCN)C(=O)N[C@@H](CO)C(=O)N[C@H](C(=O)O)[C@@H](C)O)[C@@H](C)O)C3CC4CC(C3)CC2C4)C2CC3CC(C2)CC1C3` (stereo partly drawn) [2c] (H-AR[X1][Lys((1R,2S)-2-Ph-cPr)][X1]TARKST-OH; C-terminus assumed), the values for the IC50 in assay [2], in assay [1] and in assay [3] were 72.4 ± 4 nM, above 10 µM and above 10 µM, respectively.
Turning to `C[C@H](N)C(=O)N[C@@H](CCCNC(=N)N)C(=O)N[C@H](C(=O)N[C@@H](CCCCN[C@@H]1C[C@H]1c1ccccc1)C(=O)N[C@@H](CCC(N)=O)C(=O)N[C@H](C(=O)N[C@@H](C)C(=O)N[C@@H](CCCNC(=N)N)C(=O)N[C@@H](CCCCN)C(=O)N[C@@H](CO)C(=O)N[C@H](C(=O)O)[C@@H](C)O)[C@@H](C)O)[C@@H](C)O` [peptide 1, reference compound], the figures for the IC50 in assay [2], in assay [1] and in assay [3] were 126 ± 2 nM, above 10 µM and above 10 µM, respectively. Moreover, in assay [2], the “LSD1 inhibitory activity” value is recorded as “inactivated LSD1 potently compared to PCPA”.
Regarding `C[C@H](N)C(=O)N[C@@H](CCCNC(=N)N)C(=O)NC(C)(C)C(=O)N[C@@H](CCCCN[C@@H]1C[C@H]1c1ccccc1)C(=O)NC(C)(C)C(=O)N[C@H](C(=O)N[C@@H](C)C(=O)N[C@@H](CCCNC(=N)N)C(=O)N[C@@H](CCCCN)C(=O)N[C@@H](CO)C(=O)N[C@H](C(=O)O)[C@@H](C)O)[C@@H](C)O` [peptide 2a] (H-AR[Aib][Lys((1R,2S)-2-Ph-cPr)][Aib]TARKST-OH; C-terminus assumed), the IC50 in assay [2] was 89.1 ± 5.3 nM; in assay [1], above 10 µM; in assay [3] it was above 10 µM.
Turning to `C[C@H](N)C(=O)N[C@@H](CCCNC(=N)N)C(=O)NC1(C(=O)N[C@@H](CCCCN[C@@H]2C[C@H]2c2ccccc2)C(=O)NC2(C(=O)N[C@H](C(=O)N[C@@H](C)C(=O)N[C@@H](CCCNC(=N)N)C(=O)N[C@@H](CCCCN)C(=O)N[C@@H](CO)C(=O)N[C@H](C(=O)O)[C@@H](C)O)[C@@H](C)O)CCCCC2)CCCCC1` [peptide 2b] (H-AR[Ac6c][Lys((1R,2S)-2-Ph-cPr)][Ac6c]TARKST-OH; C-terminus assumed), the results for the IC50 in assay [2], in assay [1] and in assay [3] were 58.4 ± 2.5 nM, above 10 µM and above 10 µM, respectively. Besides, in assay [2] (LSD1 selectivity, MAO-A/MAO-B assayed for selectivity toward LSD1), the LSD1 selectivity is above 170 fold. Moreover, the “LSD1 inhibitory activity” value in assay [2] was “the most potent LSD1 inactivator among the peptides tested in this study”.
